Measured values taken from patent publication US20200383331A1, “COMPOSITIONS AND METHODS FOR LARGE-SCALE IN VITRO PLANT BIOCULTURE” (BOOSHOOT, LLC, priority 2017, published 2020).

Tested on: Pistacia atlantica x P. intergerrina plants
Assay: In vitro initiation and multiplication of pistachio on solid medium
Format: cell-based
Description: Fully developed pistachio plants were cut into single-node explants, shoot tips, basal (bottom) parts of plants with multiple buds, and cultured on different agar-solidified culture media under standard tissue culture conditions (16 h light photoperiod, cool white fluorescent lights at 80-100 μmol/m^2/s light intensity, 24° C.).
Culture vessels (baby food jars) with ventilated lids are used in all experiments: 1-3 explants per 1 vessel, 12 vessels per each experimental medium, 40 ml of medium in each vessel. The explants are subcultured every 30 days, photographed every week, and observed daily.
The culture media differed in composition of major macronutrients (e.g., MS vs. WPM vs. DKW), individual elements (calcium, magnesium, phosphorus, zinc copper, boron, etc.), as well as in type and concentration of plant growth regulators (PGRs).
The compositions of these media are presented in FIG. 38, and their key advantages are based on data presented below.
Because the type and dosage of PGRs are usually the key factors controlling the morphogenetic response of plant cells in vitro, the main work was focused on testing various concentrations of cytokinins or cytokinin-like compounds (TDZ, 2iP, BA, meta-Topolin, ZR), alone or in combination with auxins (NAA, IAA, IBA), to induce organogenesis and high frequency multiplication in Pistacia atlantica x P. intergerrina. In the absence of PGRs (i.e., on hormone-free media), the plant growth was very poor and the culture gradually died within several weeks. In contrast, the culture media with 1-3 mg/l meta-Topolin, alone or in combination with 0.02-1 mg/l NAA or IBA, provided the highest rate of shoot organogenesis with the fastest response: each explant formed multiple meristematic buds, and the first axillary shoots appeared as early as 3 days after the explants were placed on the media. […] The multiplication rate of pistachio plants cultured on BOO3, BOO6, BOO4, and BOO7 media was 2-7 times every 30 days. […]

[1] = 1-3 mg/l meta-Topolin, alone or in combination with 0.02-1 mg/l NAA or IBA

Row | Structure (SMILES) | shoot development from dormant buds of plant bases (2 mg/l of GA3 added into the media) | first axillary shoots appeared after the explants were placed on the media [1] | rate of shoot organogenesis [1]
1 | C=C1C[C@]23C[C@@]1(O)CC[C@H]2[C@@]12C=C[C@H](O)[C@@](C)(C(=O)O1)[C@H]2[C@@H]3C(=O)O [GA3, gibberellic acid] | induced shoot development | – | –
2 | Oc1cccc(CNc2ncnc3[nH]cnc23)c1 [meta-Topolin, 6-(3-hydroxybenzylamino)-purine] | – | ≥ 3 days | highest
